Experimental data: patent US20180313858A1, “QUANTIFICATION OF DRUGS IN BIOLOGICAL SAMPLES” (Indivior UK Limited, priority 2015, published 2018)
Marks after values point to notes of the source that are not given here.

Experiments:
[1] = clinical; conditions: human, in vivo
[2] = human, in vivo

With `C=CCN1CC[C@]23c4c5ccc(O)c4O[C@H]2C(=O)CC[C@@]3(O)[C@H]1C5` [naloxone] the AUC(0-inf) [1] was 0.0772 ng·h/mL, the AUC(0-t) [1] was 0.0681 ng·h/mL and the Cmax [1] was 0.0266 ng/mL. The Tmax [1] was 45 min, the plasma concentration [2] was 0.068 ng/mL and the “t1/2 (apparent terminal half-life)” value [2] was 2.21 (61.1)^f h. The “time for which analyte was quantifiable in plasma” value [2] was 36 h.
